Patent US12016863B2, “Inhibitors of RSV replication and applications thereof” (priority 2018, dated 2024)

Experiments:
[1] = tested on: RSV; assay: Cell-based anti-RSV potency in HEp2 cells; details: human respiratory syncytial virus, HEp-2
From the text: (§1) For initial potency assessment, recombinant RSV reporter viruses can be employed to determine dose-response curves. These tests can be run routinely in an automated format, simultaneously assessing 8-fold serial compound dilutions in 3 independent replicates. Active concentrations can be calculated by four-parameter variable slope regression modeling. Individual prodrug candidates failing this assay can be tested for membrane permeability using a Caco-2 cell assay. Resistance-validated Caco-2 monolayers (TEER value >0.5×103Ω) will receive compound from the apical side, followed by LC-MS/MS-based quantification of substance intracellularly and in both chambers after 2-hour incubation. Atenolol, propranolol, and talinolol can be included as references and permeability coefficients (Papp) calculated. Candidates with poor Papp values can be reformulated synthetically. In parallel, all candidates can be subjected to rapid cytotoxicity screening, relying on PrestoBlue to monitor the redox potential of living cells after 48-hour exposure to a concentration range of compound. A validated automated cytotoxicity test pipeline has been established and can calculate CC50 values through variable slope regression modeling.

[2] = Cytotoxicity in HEp2 cells; format: cell-based; details: human, read-out: CC50 HEp2 cells RSV
From the text: as §1

[3] = tested on: RSV; assay: Cell-based anti-RSV potency in BEAS2B cells; details: human respiratory syncytial virus, BEAS-2B
From the text: as §1

[4] = Cytotoxicity in BEAS2B cells; format: cell-based; details: human, read-out: CC50 BEAS2B cells RSV
From the text: as §1

[5] = target: RSV N protein (N-P interaction) (Human respiratory syncytial virus A (strain A2), UniProt P03418); assay: FP assay: competition with 5-FAM-Ppep for purified RSV N; format: binding; details: for Ki: FP assay, purified RSV N vs 5-FAM-Ppep
[6] = target: RSV N-P interaction (Human respiratory syncytial virus A (strain A2), UniProt P03418); assay: Biolayer interferometry (BLI) competition assay, purified N to P protein biosensors; format: binding; details: PBS+BSA 0.01% +Tween20 0.002%
From the text: Dissociation rates of purified N to P protein biosensors determined in presence of GRP-171194 under stringent conditions (PBS+BSA 0.01% +Tween20 0.002%).

Chain of RSV N protein (N-P interaction) (P03418 whole entry): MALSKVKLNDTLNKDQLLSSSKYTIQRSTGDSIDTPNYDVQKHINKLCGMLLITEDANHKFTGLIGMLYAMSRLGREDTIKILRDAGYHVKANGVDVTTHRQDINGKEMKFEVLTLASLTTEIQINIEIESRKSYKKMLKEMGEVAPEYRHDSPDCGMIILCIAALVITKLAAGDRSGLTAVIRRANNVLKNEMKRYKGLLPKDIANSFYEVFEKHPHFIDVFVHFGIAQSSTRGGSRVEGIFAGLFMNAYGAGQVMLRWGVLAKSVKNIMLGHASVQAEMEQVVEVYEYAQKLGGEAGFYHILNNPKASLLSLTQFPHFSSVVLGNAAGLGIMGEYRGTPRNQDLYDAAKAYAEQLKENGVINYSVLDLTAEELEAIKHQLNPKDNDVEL
Chain of RSV N-P interaction (P03418 whole entry): as above

Structure (SMILES) | IC50 [1] [µM] | CC50 at 48 h [2] [µM] | IC50 [3] [µM] | CC50 at 48 h [4] [µM] | Ki [5] [µM] | inhibition of purified N binding to P protein biosensors (BLI) [6] | competition with 5-FAM-Ppep for N in FP assay ([5]; compound 0.31-40 μM, 5-FAM-Ppep 1 μM)
CC(C)OC(=O)C1=CC(c2ccccc2Cl)n2nnnc2N1 (centres unmarked) [ZD-3-069] | > 300 | > 300 | > 300 | > 300 | > 300 | – | –
CC(C)COC(=O)C1=CC(c2ccccc2Cl)n2nnnc2N1 (centres unmarked) [EJ3043] | > 300 | > 300 | > 300 | > 300 | > 300 | – | –
CCOC(=O)C1=CC(c2ccccc2Cl)n2nnnc2N1 (centres unmarked) [EJ3062] | > 300 | > 300 | > 300 | > 300 | > 300 | – | –
COC(=O)Nc1ccc2c(C)c(Cl)c(=O)oc2c1 [EJ3066] | > 100 | > 100 | 130 | > 100 | > 300 | – | –
O=C(OCC(F)(F)F)C1=CC(c2ccccc2Cl)n2nnnc2N1 (centres unmarked) [ZD-3-064] | – | – | > 300 | > 300 | > 300 | – | –
CNC(=O)C1=CC(c2ccccc2Cl)n2nnnc2N1 (centres unmarked) [EJ3057] | – | – | 112 | > 100 | > 300 | – | –
CN(C)C(=O)C1=CC(c2ccccc2Cl)n2nnnc2N1 (centres unmarked) [EJ3054] | – | – | 100 | 131 | > 300 | – | –
O=C(O)C1=CC(c2ccccc2)n2nnnc2N1 (centres unmarked) [RJW-3-024] | – | – | > 300 | > 300 | 10 | – | –
CC(=O)Oc1ccc2c(C)c(Cl)c(=O)oc2c1 [GRP-268365] | – | – | – | – | 2.2 | – | –
Cc1c(Cl)c(=O)oc2cc(OC(=O)C(C)C)ccc12 [ZD-3-067] | 6.5 | 7 | 136 | 251 | 1.6 | – | –
COc1ccc2c(C)c(Cl)c(=O)oc2c1 [EJ3061] | – | – | – | – | > 300 | – | –
Cc1c(Cl)c(=O)oc2cc(OC(C)C)ccc12 [EJ3063] | 1.9 | 1.2 | 14.6 | > 300 | > 300 | – | –
COC(=O)C1=CC(c2ccccc2Cl)n2nnnc2N1 (centres unmarked) [EJ3051] | – | – | 101 | 102 | > 300 | – | –
O=C(O)C1=CC(c2ccccc2Cl)n2nnnc2N1 (centres unmarked) [GRP-171194, 7-(2-chlorophenyl)-4,7-dihydrotetrazolo[1,5-a]pyrimidine-5-carboxylic acid] | > 300 | > 300 | > 300 | > 300 | 2.4 | dose-dependent inhibition | dose-dependent competition
Cc1c(Cl)c(=O)oc2cc(O)ccc12 [AX801] | – | – | 65 | 116 | > 300 | – | –
CC(=O)Oc1ccc2c(C)cc(=O)oc2c1 [EJ21257] | > 300 | > 100 | > 300 | 113 | 2.9 | – | –
